Assay results reported in ChEMBL document CHEMBL1201862, “PubChem BioAssay data set” (2004).
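96-well plates; 48 h exposure; 5 concentrations. Endpoints by linear interpolation between flanking doses. Not reached: highest tested concentration assigned. GI50 marks 50% less growth.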 Activity calls are given as the source filed them. Rule as the data show it: active = GI50 up to about 1.1 µM and inactive = higher.

Tests used:
Experiment in all cases: NCI tumour cell line growth inhibition, 48 h
786-0 = test system: 786-0
EKVX = test system: EKVX
KM-20L2 = test system: KM-20L2
COLO 205 = test system: COLO 205
CAKI-1 = test system: CAKI-1
ACHN = test system: ACHN
NCI-H23 = test system: NCI-H23
HL-60 = test system: HL-60
A549 = test system: A549
SNB-75 = test system: SNB-75
CCRF-CEM = test system: CCRF-CEM
HCT-116 = test system: HCT-116
UACC-257 = test system: UACC-257
IGROV-1 = test system: IGROV-1
DU-145 = test system: DU-145
MCF7 = test system: MCF7
MDA-N = test system: MDA-N
PC-3 = test system: PC-3
BT-549 = test system: BT-549

Measured: GI50

CC(=O)NC(CCCNC(=O)NCCCl)C(=O)NCc1ccccc1 (stereo unspecified)
inactive: 786-0 > 100 µM | EKVX > 100 µM | KM-20L2 > 100 µM | COLO 205 > 100 µM | CAKI-1 > 100 µM | ACHN > 100 µM | NCI-H23 > 100 µM | HL-60 > 100 µM | A549 > 100 µM | SNB-75 > 100 µM | CCRF-CEM > 100 µM | HCT-116 > 100 µM | UACC-257 > 100 µM

COC(=O)c1csnn1
inactive: 786-0 > 100 µM | EKVX > 100 µM | KM-20L2 > 100 µM | COLO 205 > 100 µM | ACHN > 100 µM | NCI-H23 > 100 µM | IGROV-1 > 100 µM | HL-60 > 100 µM | A549 > 100 µM | CCRF-CEM > 100 µM | HCT-116 > 100 µM | UACC-257 > 100 µM

CCOC(=O)CCC(C(=O)OCC)n1nc2ccc(Nc3c(C)[n+]([O-])c4cc(F)c(OCC)cc4[n+]3[O-])cc2n1 (stereo unspecified)
inactive: 786-0 25.3 µM | EKVX 28.5 µM | DU-145 > 100 µM | COLO 205 > 100 µM | CAKI-1 > 100 µM | ACHN 40.2 µM | MCF7 61.2 µM | NCI-H23 32.9 µM | MDA-N > 100 µM | IGROV-1 78.5 µM | PC-3 37.2 µM | HL-60 > 100 µM | A549 75.2 µM | SNB-75 15.8 µM | CCRF-CEM > 100 µM | HCT-116 50.8 µM | BT-549 34 µM | UACC-257 > 100 µM

Cc1c(Cc2ccccc2)c(Cc2ccccc2)c(C)[s+]1[O-]
inactive: 786-0 22.9 µM | EKVX 18.4 µM | DU-145 38.3 µM | COLO 205 20.5 µM | CAKI-1 22.7 µM | ACHN 32.7 µM | MCF7 20.3 µM | NCI-H23 28.3 µM | MDA-N 24.6 µM | IGROV-1 36.8 µM | PC-3 18.8 µM | HL-60 12.5 µM | A549 30.2 µM | SNB-75 20 µM | CCRF-CEM 19.1 µM | HCT-116 24.1 µM | BT-549 33.2 µM | UACC-257 19.7 µM

c1ccc2c(c1)CCc1[nH]c3c(c1-2)-c1ccccc1CC3
inactive: 786-0 83 µM | EKVX > 100 µM | DU-145 > 100 µM | COLO 205 > 100 µM | CAKI-1 91.6 µM | ACHN > 100 µM | MCF7 39.9 µM | NCI-H23 > 100 µM | MDA-N 94 µM | IGROV-1 > 100 µM | PC-3 64.1 µM | HL-60 27.9 µM | A549 77.1 µM | SNB-75 80.5 µM | CCRF-CEM 39.4 µM | HCT-116 96.8 µM | BT-549 > 100 µM | UACC-257 > 100 µM

CC1=NN(c2nc(N)nc(CSc3cc(Cl)c(C)cc3S(N)(=O)=O)n2)C(C)(C)C1
inactive: 786-0 > 10 µM | EKVX > 10 µM | DU-145 > 10 µM | COLO 205 > 10 µM | CAKI-1 > 10 µM | ACHN > 10 µM | MCF7 > 10 µM | NCI-H23 > 10 µM | MDA-N > 10 µM | IGROV-1 > 10 µM | PC-3 > 10 µM | HL-60 > 10 µM | A549 > 10 µM | SNB-75 > 10 µM | CCRF-CEM > 10 µM | HCT-116 > 10 µM | BT-549 > 10 µM | UACC-257 > 10 µM

C=CCOc1ccc(C2C(C(=O)OCC)C(=O)CC(C)(O)C2C(=O)OCC)cc1OC (stereo unspecified)
inactive: 786-0 > 100 µM | EKVX > 100 µM | DU-145 > 100 µM | COLO 205 > 100 µM | CAKI-1 > 100 µM | ACHN > 100 µM | MCF7 > 100 µM | NCI-H23 > 100 µM | MDA-N > 100 µM | IGROV-1 > 100 µM | PC-3 > 100 µM | HL-60 > 100 µM | A549 > 100 µM | SNB-75 > 100 µM | CCRF-CEM > 100 µM | HCT-116 > 100 µM | BT-549 > 100 µM | UACC-257 > 100 µM

O=[N+]([O-])c1cc([N+](=O)[O-])c(/C=C/c2ccc(Cl)c(Cl)c2)cc1/C=C/c1ccc(Cl)c(Cl)c1
inactive: 786-0 24.7 µM | EKVX 44.1 µM | KM-20L2 31 µM | COLO 205 18.7 µM | CAKI-1 31.4 µM | ACHN 22.5 µM | NCI-H23 20.4 µM | IGROV-1 22.9 µM | HL-60 22.2 µM | A549 41.3 µM | SNB-75 29 µM | CCRF-CEM 21.7 µM | UACC-257 23.4 µM

CNc1ncnc2c1ncn2C1C=CC(COS(N)(=O)=O)C1 (stereo unspecified)
inactive: 786-0 > 100 µM | EKVX > 100 µM | DU-145 > 100 µM | COLO 205 > 100 µM | CAKI-1 > 100 µM | ACHN > 100 µM | MCF7 > 100 µM | NCI-H23 > 100 µM | MDA-N > 100 µM | IGROV-1 > 100 µM | PC-3 > 100 µM | HL-60 > 100 µM | A549 > 100 µM | SNB-75 > 100 µM | CCRF-CEM > 100 µM | HCT-116 > 100 µM | BT-549 > 100 µM | UACC-257 > 100 µM

C/C=C(\C)C(=O)OC1/C=C(\C)CC/C=C(\C)CC2OC(=O)C(C)(OC(C)=O)C12 (stereo unspecified)
inactive: 786-0 > 100 µM | EKVX > 100 µM | DU-145 > 100 µM | COLO 205 > 100 µM | CAKI-1 > 100 µM | ACHN > 100 µM | MCF7 > 100 µM | NCI-H23 > 100 µM | MDA-N > 100 µM | IGROV-1 > 100 µM | PC-3 > 100 µM | HL-60 59.7 µM | A549 > 100 µM | SNB-75 > 100 µM | CCRF-CEM > 100 µM | HCT-116 > 100 µM | BT-549 > 100 µM | UACC-257 > 100 µM

O=C(/C=C/c1ccccc1)Nc1ccccc1SCCCCl
inactive: 786-0 13.4 µM | EKVX 15.4 µM | DU-145 10.2 µM | COLO 205 15.6 µM | CAKI-1 5.79 µM | ACHN 20 µM | MCF7 4.4 µM | NCI-H23 3.56 µM | MDA-N 6.38 µM | IGROV-1 1.18 µM | PC-3 9.91 µM | HL-60 3.8 µM | A549 25 µM | SNB-75 17.7 µM | CCRF-CEM 10 µM | HCT-116 8.91 µM | BT-549 8.11 µM | UACC-257 18.2 µM

Cc1ccc(SC2C(C)(C)N(C(C)C)P2(=O)N(C(C)C)C(C)C)cc1 (stereo unspecified)
inactive: 786-0 82.4 µM | EKVX 26.4 µM | KM-20L2 34 µM | COLO 205 > 43.7 µM | CAKI-1 47 µM | ACHN 15.8 µM | NCI-H23 26.7 µM | IGROV-1 > 86.3 µM | HL-60 14.7 µM | A549 > 45 µM | SNB-75 > 100 µM | CCRF-CEM 31.8 µM | HCT-116 26.4 µM | UACC-257 16.9 µM
